Numbers after ± are expanded uncertainties.
Details: 298.15 K, 101.33 kPa, Liquid

- viscosity (Cone and plate viscometry): 16.9 ± 1.7 mPa·s
- electrical conductivity (Direct current cell with electrodes): 8.5e-05 ± 2e-06 S/m
- thermal conductivity (transient hot wire): 0.2445 ± 0.0098 W/m/K
SMILES: OCCO [1,2-ethanediol]

Source: the NIST ThermoML archive (doi:10.1016/j.tca.2017.02.001)
